According to patent US20260297627A1, “MODULATION OF GLOBAL REGULATORY MECHANISMS AND BIOSYNTHETIC GENE CLUSTERS FOR SIMPLIFIED PRODUCTION OF NATURAL PRODUCTS” (priority 2023, published 2026):
“Also recorded” adds a separate entry of the source.

Tests used:
proteasome = settings: role: inhibitor; cited from earlier work
[1] = test system: X. indica ΔrpmM-O mutant (strain VII); test: Growth curve of X. indica ΔrpmM-O mutant (strain VII) with fed benzoic acid derivative; type: cell-based, Xenorhabdus indica
Protocol: To elucidate the influence of rpmM-O on biosynthesis, they were deleted together bases on pAR20 with the synthetic dsDNA fragments used for CRISPR/Cas12 mediated genome editing specific HA-L and R SEQ ID NOs 177-178 The resulting mutant ΔrpmM-O was then analysed for production and growth. Also with the addition of 3,4-AHBA, no growth and thus no production could be observed (FIG. 12 VII).
(§1) In order to analyze the growth curve, the strains were cultured in microtiter plates in a Tecan Spark microplate reader (FIG. 14). A comparison was initially made between strain V and strain VII with and without the addition of 3,4-AHBA (FIGS. 14 A and B). Furthermore, to investigate the sole effect of 3,4-AHBA on the cells, 3,4-AHBA was added to the cells in presence or not of the rpm BGC inducer IPTG (FIGS. 14A and B). […] Subsequently, in order to investigate the effect of the amino group on the benzoic acid, 3,4-DHBA was fed to both strains (FIGS. 14 C and D). […] It can therefore be concluded that the amino group is crucial for the bioactivity of rupshomycin.

[2] = test system: X. indica ΔrpmM-O mutant with vector expressing rpmO (strain IX); settings: 3,4-AHBA and IPTG; compared to empty vector control
Protocol: (§2) Addition of the inducer and benzoic acid was added from the start. The numbering I-IX corresponds to the strains in FIG. 12. A: growth of strain I culture with and without induction (1 mM IPTG), with and without addition of 3,4-AHBA. B: growth of strain V culture with and without induction, with and without addition of 3,4-AHBA. C: growth of strain I culture with and without induction, with and without addition of 3,4-DHBA. D: growth of strain V culture with and without induction, with and without addition of 3,4-DHBA. E: growth of induced and 3,4-AHBA supplemented strain VIII culture with vector expressing rpmMN or empty expression vector. F: growth of induced and 3,4-AHBA supplemented strain IX culture with vector expressing rpmO or empty expression vector.
(§3) Which of the rpmM-O genes are responsible for resistance to the biosynthesis product of the rpm BGC was the question addressed in the following studies. […] The influence of the vector was excluded by conjugating an empty vector into the strains as a control. […] Production of rupshomycins were performed in XPP3 medium with 2% (v/v) XAD-16 for in situ extraction.

[3] = test system: X. indica ΔrpmM-O mutant with empty vector; settings: 3,4-AHBA and IPTG; empty vector control
Protocol: as §2, §3

[4] = test system: X. indica ΔrpmM-O mutant with vector expressing rpmM and rpmN (strain VIII); settings: 3,4-AHBA and IPTG; compared to empty vector control
Protocol: as §2, §3

X. indica strain V = test: Growth curve of X. indica strain V with fed benzoic acid derivative; type: cell-based, Xenorhabdus indica; settings: with and without 3,4-AHBA, in presence or not of IPTG
Protocol: as §1

Question: With `CCCCCCC/C=C/C=C/C(=O)N[C@H](C(=O)N[C@H]1C[C@@H](O)CCNC(=O)/C=C/[C@H](C)NC1=O)[C@@H](C)O` [glidobactin A] as the compound, how does the proteasome inhibition (proteasome) read?
Answer: potent proteasome inhibitors

Question: With `CC(C)CCCCC/C=C/C=C/C(=O)N[C@H](C(=O)N[C@H]1CC(O)CCNC(=O)/C=C/C(C)NC1=O)[C@@H](C)O` (some centres unmarked) [cepafungin I] as the compound, how does the proteasome inhibition (proteasome) read?
Answer: potent proteasome inhibitors

Question: Which growth ([1]; 3,4-DHBA fed, induced vs non-induced culture) does the source give for `O=C(O)c1ccc(O)c(O)c1` [3,4-DHBA] here?
Answer: did not lead to the complete death of the ΔrpmM-O culture, but to a growth deficiency compared to the non-induced culture

Question: With `Nc1cc(C(=O)O)ccc1O` [3,4-AHBA, 3-amino-4-hydroxy benzoic acid] as the compound, how does the growth [2] read?
Answer: no significant growth of the culture was observed compared to the empty vector control

Question: What about the growth [3] of the same compound?
Answer: severe growth defect of the culture

Question: And the growth [4]?
Answer: significant growth of the culture compared to the empty vector control

Question: What about the growth ([1]; 3,4-AHBA fed, rpm BGC induced, 96 well microtiter plate, 24 hours) of the same compound?
Answer: culture dies after induction; also recorded: no growth; also recorded: a weak growth was observed in the first 3 hours, which then quickly collapsed and fell below the optical density of the starting point of the experiment

Question: And the growth (X. indica strain V)?
Answer: no particular growth differences were observed
